Patent US9168259B2 (GRÜNENTHAL GMBH, priority 2010, dated 2015)

Molecular target: T1, KCNQ2/3 channels (Homo sapiens, UniProt O43525+O43526)
T1 construct: expressed in transfected cells
Assay: Fluorescence assay using a voltage sensitive dye (fluorimetry)
Assay type: cell-based
Settings: CHO-K1 cells expressing KCNQ2/3; for Emax: CHO-K1, plateau effect relative to saturated retigabine (50 μM) = 100%, negative values = antagonistic, read-out: Fluorimetry % efficacy (retigabine = 100%); for EC50: IC50 where % efficacy is negative, read-out: Fluorimetry EC50/IC50

T1 sequence (O43526 whole entry): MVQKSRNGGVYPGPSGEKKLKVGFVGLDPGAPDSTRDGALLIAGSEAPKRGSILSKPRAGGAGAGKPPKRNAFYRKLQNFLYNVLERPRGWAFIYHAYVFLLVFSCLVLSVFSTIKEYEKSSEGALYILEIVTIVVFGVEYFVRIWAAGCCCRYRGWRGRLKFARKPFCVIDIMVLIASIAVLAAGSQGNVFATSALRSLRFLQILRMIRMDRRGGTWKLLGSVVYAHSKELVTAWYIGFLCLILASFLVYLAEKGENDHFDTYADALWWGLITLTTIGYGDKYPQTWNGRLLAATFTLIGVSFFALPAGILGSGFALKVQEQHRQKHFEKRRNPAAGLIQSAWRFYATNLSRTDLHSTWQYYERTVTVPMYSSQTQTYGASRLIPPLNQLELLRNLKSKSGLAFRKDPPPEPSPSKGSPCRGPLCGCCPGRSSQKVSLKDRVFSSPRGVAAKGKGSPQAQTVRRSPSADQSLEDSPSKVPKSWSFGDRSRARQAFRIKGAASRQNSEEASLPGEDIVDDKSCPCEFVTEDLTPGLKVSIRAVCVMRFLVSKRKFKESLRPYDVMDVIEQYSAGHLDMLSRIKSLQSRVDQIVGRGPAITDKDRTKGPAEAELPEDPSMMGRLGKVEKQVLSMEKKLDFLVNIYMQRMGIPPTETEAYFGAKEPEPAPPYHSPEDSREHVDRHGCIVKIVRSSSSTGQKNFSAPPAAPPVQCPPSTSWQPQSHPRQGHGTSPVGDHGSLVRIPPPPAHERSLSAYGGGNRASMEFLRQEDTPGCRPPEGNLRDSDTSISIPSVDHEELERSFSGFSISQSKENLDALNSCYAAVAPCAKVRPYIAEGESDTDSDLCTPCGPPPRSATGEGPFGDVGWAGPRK
T1 sequence (O43525 whole entry): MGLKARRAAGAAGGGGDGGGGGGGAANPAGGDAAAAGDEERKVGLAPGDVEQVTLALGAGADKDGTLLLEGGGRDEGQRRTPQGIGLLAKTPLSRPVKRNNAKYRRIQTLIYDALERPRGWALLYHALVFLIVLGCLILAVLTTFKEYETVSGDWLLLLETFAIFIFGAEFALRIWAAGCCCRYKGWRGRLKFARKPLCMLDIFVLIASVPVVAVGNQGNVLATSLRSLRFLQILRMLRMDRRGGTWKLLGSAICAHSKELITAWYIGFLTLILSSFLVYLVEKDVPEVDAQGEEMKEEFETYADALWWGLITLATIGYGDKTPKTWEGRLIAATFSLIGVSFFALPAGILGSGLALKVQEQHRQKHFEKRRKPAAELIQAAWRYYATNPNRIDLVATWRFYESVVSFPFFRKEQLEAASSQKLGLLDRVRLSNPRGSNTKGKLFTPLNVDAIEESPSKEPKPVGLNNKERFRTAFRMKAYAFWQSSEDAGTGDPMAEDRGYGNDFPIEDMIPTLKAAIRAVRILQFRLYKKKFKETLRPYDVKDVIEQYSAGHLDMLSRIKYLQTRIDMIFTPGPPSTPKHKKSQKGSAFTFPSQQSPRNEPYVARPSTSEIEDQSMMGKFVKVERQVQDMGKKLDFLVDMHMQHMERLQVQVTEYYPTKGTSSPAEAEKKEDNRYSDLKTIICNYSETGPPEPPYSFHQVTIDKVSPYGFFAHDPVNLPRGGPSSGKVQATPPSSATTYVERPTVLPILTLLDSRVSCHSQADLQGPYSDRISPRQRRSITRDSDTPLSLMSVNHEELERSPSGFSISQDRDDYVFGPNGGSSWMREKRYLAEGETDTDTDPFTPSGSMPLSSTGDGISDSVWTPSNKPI

| Emax [%] | EC50 [nM] | SMILES |
| --- | --- | --- |
| 160 | 558 | Cc1cc(N2CCOCC2)nc(N(C)C)c1C(=O)NCc1ccc(C(F)(F)F)cc1 [Example 241, 2-Dimethylamino-4-methyl-6-morpholin-4-yl-N-[[4-(trifluoromethyl)-phenyl]-methyl]-pyridine-3-carboxylic acid amide] |
| 210 | 676 | CSc1nc(N2CCOCC2)cc(C)c1C(=O)NCCCC(F)(F)F [Example 153, 4-Methyl-2-methylsulfanyl-6-morpholin-4-yl-N-(4,4,4-trifluoro-butyl)-pyridine-3-carboxylic acid amide] |
| 259 | 201 | CCN(C)c1nc(N2CCOC[C@H]2C)cc(C)c1C(=O)NCc1ccc(F)cc1 [Example 173, 2-(Ethyl-methyl-amino)-N-[(4-fluorophenyl)-methyl]-4-methyl-6-[(3R)-3-methyl-morpholin-4-yl]-pyridine-3-carboxylic acid amide] |
| -102 | 275 | CCSc1nc(N2CCOCC2)cc(C)c1C(=O)NCc1ccccc1-c1ccc(F)cc1 [Example 71, 2-Ethylsulfanyl-N-[[2-(4-fluorophenyl)-phenyl]-methyl]-4-methyl-6-morpholin-4-yl-pyridine-3-carboxylic acid amide] |
| 146 | 2310 | COc1nc(N2CCCOCC2)cc(C)c1C(=O)NCc1cccc(F)c1 [Example 98, N-[(3-Fluorophenyl)-methyl]-2-methoxy-4-methyl-6-([1,4]oxazepan-4-yl)-pyridine-3-carboxylic acid amide] |
| 123 | 86 | CCSc1nc(N2CCOC[C@@H]2COC)cc(C)c1C(=O)NCc1cccc(F)c1 [Example 180, 2-Ethylsulfanyl-N-[(3-fluorophenyl)-methyl]-6-[(3S)-3-(methoxymethyl)-morpholin-4-yl]-4-methyl-pyridine-3-carboxylic acid amide] |
| 162 | 83 | CCCc1nc(N2CCOCC2)cc(C)c1C(=O)NCc1ccc(F)c(F)c1 [Example 321, N-[(3,4-Difluoro-phenyl)-methyl]-4-methyl-6-morpholin-4-yl-2-propyl-pyridine-3-carboxylic acid amide] |
| 240 | 63 | COc1nc(N2CCOC[C@H]2C)cc(C)c1C(=O)NCCCC(C)(C)C [Example 186, N-(4,4-Dimethyl-pentyl)-2-methoxy-4-methyl-6-[(3R)-3-methyl-morpholin-4-yl]-pyridine-3-carboxylic acid amide] |
| 93 | 7060 | CCSc1nc(N2CCC(O)CC2)cc(C)c1C(=O)NCc1cccc(F)c1 [Example 15, 2-Ethylsulfanyl-N-[(3-fluorophenyl)-methyl]-6-(4-hydroxy-piperidin-1-yl)-4-methyl-pyridine-3-carboxylic acid amide] |
| 253 | 41 | CCSc1nc(N2CCOCC2)cc(C)c1C(=O)NCC#CC(C)(C)C [Example 344, N-(4,4-Dimethyl-pent-2-ynyl)-2-ethylsulfanyl-4-methyl-6-morpholin-4-yl-pyridine-3-carboxylic acid amide] |

Continued, compound first:

| SMILES | Emax [%] | EC50 [nM] |
| --- | --- | --- |
| CCSc1nc(N2CCOCC2)cc(C)c1C(=O)NCc1ccc(F)c(CO)c1 [Example 353, 2-Ethylsulfanyl-N-[[4-fluoro-3-(hydroxymethyl)-phenyl]-methyl]-4-methyl-6-morpholin-4-yl-pyridine-3-carboxylic acid amide] | 46 | – |
| CCSc1nc(N(C)Cc2ccc(C(F)(F)F)cc2)cc(C)c1C(=O)NCc1cccc(F)c1 [Example 297, 2-Ethylsulfanyl-N-[(3-fluorophenyl)-methyl]-4-methyl-6-[methyl-[[4-(trifluoromethyl)-phenyl]-methyl]-amino]-pyridine-3-carboxylic acid amide] | 125 | 177 |
| CCSc1nc(N2CC3(COC3)C2)cc(C)c1C(=O)NCc1cccc(F)c1 [Example 151, 2-Ethylsulfanyl-N-[(3-fluorophenyl)-methyl]-4-methyl-6-(6-oxa-2-azaspiro[3.3]heptan-2-yl)-pyridine-3-carboxylic acid amide] | 92 | 12100 |
| COc1nc(N2CCOC[C@H]2C)cc(C)c1C(=O)NCc1cccc(F)c1 [Example 214, N-[(3-Fluorophenyl)-methyl]-2-methoxy-4-methyl-6-[(3R)-3-methyl-morpholin-4-yl]-pyridine-3-carboxylic acid amide] | 194 | 224 |
| CCSc1nc(N2CCOCC2)cc(C)c1C(=O)NCC(O)Cc1ccccc1 (centres unmarked) [Example 202, 2-Ethylsulfanyl-N-(2-hydroxy-3-phenyl-propyl)-4-methyl-6-morpholin-4-yl-pyridine-3-carboxylic acid amide] | 129 | 5990 |
| COc1nc(N2CCOC[C@H]2C)cc(C)c1C(=O)NCCCC(F)(F)F [Example 236, 2-Methoxy-4-methyl-6-[(3R)-3-methyl-morpholin-4-yl]-N-(4,4,4-trifluoro-butyl)-pyridine-3-carboxylic acid amide] | 227 | 469 |
| CCSc1nc(N2CCOCC2)cc(C)c1C(=O)NCC1CCCCC1 [Example 76, N-(Cyclohexyl-methyl)-2-ethylsulfanyl-4-methyl-6-morpholin-4-yl-pyridine-3-carboxylic acid amide] | 179 | 91 |
| Cc1cc(N2CCOC[C@H]2C)nc(C(C)C)c1C(=O)NCc1ccc(F)cc1 [Example 169, N-[(4-Fluorophenyl)-methyl]-2-isopropyl-4-methyl-6-[(3R)-3-methyl-morpholin-4-yl]-pyridine-3-carboxylic acid amide] | 197 | 24 |
| CCCc1nc(N2CCOCC2)cc(C)c1C(=O)NCc1ccc(F)cc1 [Example 29, N-[(4-Fluorophenyl)-methyl]-4-methyl-6-morpholin-4-yl-2-propyl-pyridine-3-carboxylic acid amide] | 185 | 236 |
| COc1nc(N2CCOCC2)cc(C)c1C(=O)NCc1ccc(C(F)(F)F)cc1 [Example 117, 2-Methoxy-4-methyl-6-morpholin-4-yl-N-[[4-(trifluoromethyl)-phenyl]-methyl]pyridine-3-carboxylic acid amide] | 128 | 268 |
| CCSc1nc(N2CCOCC2)cc(C)c1C(=O)NCc1cccc(S(C)(=O)=O)c1 [Example 231, 2-Ethylsulfanyl-4-methyl-N-[(3-methylsulfonyl-phenyl)-methyl]-6-morpholin-4-yl-pyridine-3-carboxylic acid amide] | 61 | 10400 |
| CCSc1nc(N2CCOCC2)cc(C)c1C(=O)NCCCCC#N [Example 163, N-(4-Cyano-butyl)-2-ethylsulfanyl-4-methyl-6-morpholin-4-yl-pyridine-3-carboxylic acid amide] | 73 | – |
| CCN(C)c1nc(N2CCOC[C@H]2C)cc(C)c1C(=O)NCCCC(C)(C)C [Example 184, N-(4,4-Dimethyl-pentyl)-2-(ethyl-methyl-amino)-4-methyl-6-[(3R)-3-methyl-morpholin-4-yl]-pyridine-3-carboxylic acid amide] | 228 | 221 |
| CCSc1nc(N2CCC(OC)CC2)cc(C)c1C(=O)NCc1cccc(F)c1 [Example 49, 2-Ethylsulfanyl-N-[(3-fluorophenyl)-methyl]-6-(4-methoxy-piperidin-1-yl)-4-methyl-pyridine-3-carboxylic acid amide] | 143 | 1460 |
| CCOc1nc(N2CCOC[C@H]2C)cc(C)c1C(=O)NCc1ccc(F)cc1 [Example 182, 2-Ethoxy-N-[(4-fluorophenyl)-methyl]-4-methyl-6-[(3R)-3-methyl-morpholin-4-yl]-pyridine-3-carboxylic acid amide] | 146 | 125 |
| CCSc1nc(N(C)CC(C)=O)cc(C)c1C(=O)NCc1cccc(F)c1 [Example 253, 2-Ethylsulfanyl-N-[(3-fluorophenyl)-methyl]-4-methyl-6-[methyl-(2-oxo-propyl)-amino]-pyridine-3-carboxylic acid amide] | 79 | 5740 |
| CCCCCCNC(=O)c1c(C)cc(N2CCOCC2)nc1SCC [Example 217, 2-Ethylsulfanyl-N-hexyl-4-methyl-6-morpholin-4-yl-pyridine-3-carboxylic acid amide] | 181 | 407 |
| CCSc1nc(N2CCOC[C@@H]2C)cc(C)c1C(=O)NCc1cccc(F)c1 [Example 296, 2-Ethylsulfanyl-N-[(3-fluorophenyl)-methyl]-4-methyl-6-[(3S)-3-methyl-morpholin-4-yl]-pyridine-3-carboxylic acid amide] | 222 | 189 |
| CCSc1nc(N2CCOCC2)cc(C)c1C(=O)NCc1ccc(F)cn1 [Example 46, 2-Ethylsulfanyl-N-[(5-fluoro-pyridin-2-yl)-methyl]-4-methyl-6-morpholin-4-yl-pyridine-3-carboxylic acid amide] | 143 | 4830 |
| CCSc1nc(N2CCOCC2)cc(C)c1C(=O)NCCCc1ccccc1F [Example 129, 2-Ethylsulfanyl-N-[3-(2-fluorophenyl)-propyl]-4-methyl-6-morpholin-4-yl-pyridine-3-carboxylic acid amide] | 206 | 221 |
| CCSc1nc(N(C)CC2CCCOC2)cc(C)c1C(=O)NCc1cccc(F)c1 (centres unmarked) [Example 175, 2-Ethylsulfanyl-N-[(3-fluorophenyl)-methyl]-4-methyl-6-[methyl-(tetrahydro-pyran-3-yl-methyl)-amino]-pyridine-3-carboxylic acid amide] | 114 | 870 |
| CCSc1nc(N2CCO[C@H](C)C2)cc(C)c1C(=O)NCCCC(C)(C)C [Example 275, N-(4,4-Dimethyl-pentyl)-2-ethylsulfanyl-4-methyl-6-[(2R)-2-methyl-morpholin-4-yl]-pyridine-3-carboxylic acid amide] | 208 | 63 |
